# Data published in patent publication US20260209233A1, “ANNULATED PYRIDAZINE DERIVATIVE” (Tenvie Therapeutics, Inc., priority 2022, published 2026).
# Target: T1, NLRP3 inflammasome (Homo sapiens, UniProt Q96P20)
# T1 construct: endogenous in cells; host or cells: THP-1 cells, PMA-differentiated and stimulated with LPS and ATP
# Assay: THP-1 IL-1β production inhibition test
# Type: cell-based
# Details: PMA-treated THP-1 cells, LPS 50 ng/ml + ATP 5 mM, 2 hours, IL-1β in supernatant by ELISA
# Method: Test Example 1: THP-1 IL-1β Production Inhibition Test
# PMA (phorbol myristate acetate, SIGMA, P1585) was added to THP-1 cells in an amount of 50 ng/mL to culture the cells for 2 days at 37° C. The culture medium was replaced with a serum-free RPMI-1640 medium, and a compound with a known concentration was added thereto to culture the cells at 37° C. for 15 minutes. LPS (Lipopolysaccharide, SIMGA, L2880) and ATP (Adenosine triphosphate, SIGMA, A2383) were added so that final concentrations become 50 ng/ml and 5 mM, respectively, followed by culturing at 37° C. for 2 hours. The supernatants were collected to measure the concentrations of IL-1β by ELISA (DuoSet ELISA human IL-1β, R&D Systems, DY201). The IL-1β concentrations were plotted against log concentrations of test compounds, and an IC50 value was calculated by sigmoid Emax model nonlinear regression analysis.
# Example compounds were confirmed to inhibit NLRP3 inflammasome activation and IL-1β production.
# T1 sequence (Q96P20 whole entry): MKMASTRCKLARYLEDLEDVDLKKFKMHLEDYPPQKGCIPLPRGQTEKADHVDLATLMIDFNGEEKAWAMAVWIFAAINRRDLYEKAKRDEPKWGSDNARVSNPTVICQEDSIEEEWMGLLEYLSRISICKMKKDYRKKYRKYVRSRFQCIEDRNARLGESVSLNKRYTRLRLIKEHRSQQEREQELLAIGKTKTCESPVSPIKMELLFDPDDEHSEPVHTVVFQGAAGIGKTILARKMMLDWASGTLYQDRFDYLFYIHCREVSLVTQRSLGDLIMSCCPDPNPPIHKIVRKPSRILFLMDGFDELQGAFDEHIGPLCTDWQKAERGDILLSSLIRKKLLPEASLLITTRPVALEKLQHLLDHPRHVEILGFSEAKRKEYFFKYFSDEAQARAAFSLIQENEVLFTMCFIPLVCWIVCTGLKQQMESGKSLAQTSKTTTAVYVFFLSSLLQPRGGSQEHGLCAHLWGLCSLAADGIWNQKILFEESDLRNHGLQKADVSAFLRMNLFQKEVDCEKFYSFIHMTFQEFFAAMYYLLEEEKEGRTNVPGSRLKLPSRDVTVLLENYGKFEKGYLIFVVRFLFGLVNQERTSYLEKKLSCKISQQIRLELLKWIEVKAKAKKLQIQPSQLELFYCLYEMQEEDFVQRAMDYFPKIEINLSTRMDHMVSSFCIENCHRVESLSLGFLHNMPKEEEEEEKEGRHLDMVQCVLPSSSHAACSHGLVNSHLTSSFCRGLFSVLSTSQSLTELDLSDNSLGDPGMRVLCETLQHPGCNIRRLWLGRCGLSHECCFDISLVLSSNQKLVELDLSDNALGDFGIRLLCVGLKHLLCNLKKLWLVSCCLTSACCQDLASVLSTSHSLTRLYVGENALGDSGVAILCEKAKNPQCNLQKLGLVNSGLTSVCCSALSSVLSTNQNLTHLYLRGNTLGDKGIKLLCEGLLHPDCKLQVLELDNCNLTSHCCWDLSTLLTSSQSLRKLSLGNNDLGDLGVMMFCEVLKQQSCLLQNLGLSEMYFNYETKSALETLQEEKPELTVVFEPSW
row,SMILES,IC50 [nM]
1,"Cc1c(-c2ccc(OC(F)F)cc2O)nnc2c1CCCN2[C@@H]1CCOC[C@H]1O [Example 29, (3S,4R)-4-{3-[4-(difluoromethoxy)-2-hydroxyphenyl]-4-methyl-6,7-dihydropyrido[2,3-c]pyridazin-8(5H)-yl}oxan-3-ol]",13
2,"Cc1c(-c2ccc(C(F)(F)F)cc2O)nnc2c1CCCN2[C@@H]1CCCC[C@H]1O [Example 1, 2-{8-[(1R,2R)-2-hydroxycyclohexyl]-4-methyl-5,6,7,8-tetrahydropyrido[2,3-c]pyridazin-3-yl}-5-(trifluoromethyl)phenol]",16
3,CC(=O)NCCCCN1CCOCc2c1nnc(-c1ccc(C(F)(F)F)cc1O)c2C [Example 25],40
4,"Cc1c(-c2ccc(C(F)(F)F)cc2O)nnc2c1CCN2[C@H]1C[C@@](C)(O)C1 [Example 35, 2-{7-[(1s,3s)-3-hydroxy-3-methylcyclobutyl]-4-methyl-6,7-dihydro-5H-pyrrolo[2,3-c]pyridazin-3-yl}-5-(trifluoromethyl)phenol]",44
